We go through four compounds from patent US20230067064A1, “METHODS AND COMPOSITIONS FOR MODULATING SPLICING” (SkyHawk Therapeutics, Inc., priority 2019, published 2023).

Like-named read-outs stand apart in the source and are kept apart here.

Data set [1] deals with mHTT protein. In words: mHTT protein assay, 2B7-MW1 Mesoscale Discovery (MSD). Format: cell-based, human. Particulars: GM04724 lymphoblast cells, 48 hours, 2B7-MW1 MSD; average; read-out: HTT Potency - Protein & Cytotoxicity: EC50 mHTT (average). On the procedure: Compounds are tested on GM04724 (CAG 70/20) Huntington's disease patient lymphoblast cells at doses ranging from 10 μM to 0.6 nM. 4,500 cells/well are seeded in 384 well plates. One plate replica is carried out for parallel viability testing by CellTiter Glo (CTG). Compounds are incubated for 48 hours. mHTT protein levels are assessed by the 2B7-MW1 assay via Mesoscale Discovery (MSD) as previously reported (Macdonald et al., 2014). The antibody pair is comprised of previously characterized monoclonals (2B7 and MW1) interrogating two regions for HTT conformation and biological properties: the N17 domain and the polyQ domain (Baldo et al., 2012; Ko et., 2001). 2B7-MW1 is dependent on subject/animal specific levels of HTT at the time of treatment. 2B7-MW1 is dependent on polyQ expansion (e.g., the higher the expansion the higher the signal) and on mHTT size (e.g., a similar polyQ will give higher signal with smaller HTT size). The viability readout is carried out by CTG according to the manufacturer's instructions. The results are show in Table A-10.

Data set [2] concerns SMN protein. In words: SMN protein assay, Mesoscale Discovery (MSD). The settings on record: SMA patient fibroblasts (GM03813), 48 hours, average, read-out: SMN2 Potency - Protein: Protein FL EC50 (average). The format is cell-based, human. On the procedure: Compounds are tested on spinal muscular atrophy (SMA) patient fibroblasts (GM03813, Coriell) at doses ranging from 2.5 μM to 0.6 nM. 7000 cells/well are seeded in 96-well plates. Compounds are incubated for 48 hours and the cells were lysed with 100 μL of lysis buffer. 20 μL of lysate is used for SMN protein measurement by Mesoscale Discovery (MSD) assay developed by PharmOptima (Michigan). A standard curve prepared with SMN protein ranging from 1 μg/ml to 19.5 pg/ml is used in each MSD plate to calculate the absolute SMN protein amount in each sample.

In data set [3] the test system is MDR1-MDCK cell monolayers. In words: MDCK-MDR1 permeability assay, blood-brain-barrier (BBB) penetration potential. Format: in vitro ADME. The procedure:
(§1) Each determination is performed in duplicate. […] Analytical conditions are outlined below.
(§2) Papp=(dCr/dt)×Vr/(A×CA) (1)

Data set [4] concerns MDR1. The data set is described as above. The settings on record: dog, MDCK-MDR1, pH 7.4. Format: in vitro ADME. On the procedure: as §1, §2
The subject of data set [5] is cryptic exon within intron 49 of the Huntingtin (HTT) transcripts, GM04724 (CAG 70/20) Huntington's disease patient lymphoblasts. Briefly: Quantitative splicing assay (HTT). Format: cell-based, human. The settings on record: average. On the procedure: GM04724 (CAG 70/20) Huntington's disease patient lymphoblasts (Coriell) are plated in 96-well v-bottom plates at 50,000 cells/well. Immediately after plating, cells are dosed with compound for 24 h at concentrations ranging from 2.5 uM to 0.15 nM (0.1% DMSO). Treated cells are lysed and cDNA synthesized using the Fast Advanced Cells-to-Ct kit (Thermofisher A35378) according to the manufacturer's instructions. 2 uL of each cDNA are used in qPCR reactions to confirm the compound-induced inclusion of a cryptic exon within intron 49 of the Huntingtin (HTT) transcripts. The qPCR reactions are prepared in 384-well plates in 10 uL volume, using TaqMan™ Fast Advanced Master Mix [ThermoFisher; 4444965] with primers and probes shown in the table below. Reactions are run in a Quant Studio 6 qPCR instrument with default settings.

The subject of data set [6] is SMN FL and SMN Δ7 mRNA, spinal muscular atrophy (SMA) patient fibroblasts (GM03813). Briefly: Quantitative splicing assay (SMN). Format: cell-based, human. Particulars: 24 h, average. The procedure:
Spinal muscular atrophy (SMA) patient fibroblasts (GM03813, Coriell) are plated in 96-well plates at 50,000 cells/well. […] Treated cells are lysed and cDNA synthesized using the Fast Advanced Cells-to-Ct kit (Thermofisher A35378) according to the manufacturer's instructions. 2 μL of each cDNA are used in qPCR reactions. […] Reactions are run in a Quant Studio 6 qPCR instrument with default settings.

Where [7] appears, read: dog, MDCK-MDR1, 120 min, 5 μM, pH 7.4.

Usually EC50 stands for the concentration needed to bring the measured effect to its halfway point. Usually Papp A→B stands for the apparent permeability from the apical to the basolateral side of a cell layer. By Papp B→A is commonly meant the apparent permeability from the basolateral to the apical side of a cell layer. For orientation: efflux ratio means a quotient of directional permeabilities that is used to spot active efflux. As to `CN1[C@@H]2CCC[C@H]1C[C@H](Oc1ccc(-c3ccc(-n4ccnc4)cc3O)nn1)C2` [compound 302], the EC50 in data set [1] lay in the range of 501 to 10000 nM. Moreover, the EC50 in data set [2] was 51 to 100 nM. In data set [3] (setting [7]), the “General MDCK-MDR1: % Recov A-B” value was 90% and the “General MDCK-MDR1: % Recov B-A” value turned out to be 110%. Moreover, in data set [4], the Papp A→B at 120 min, 5 μM came out at 3.09 ×10⁻⁶ cm/s; the Papp B→A at 120 min, 5 μM worked out at 55.8 ×10⁻⁶ cm/s; the efflux ratio at 120 min, 5 μM was 18.

As for `CN1C2CC[C@@H]1C[C@@H](Oc1ccc(-c3ccc(-n4ccnc4)cc3O)nn1)C2` [compound 301], the EC50 in data set [2] was in the range of 501 to 10000 nM. Further, in data set [3] (setting [7]), the “General MDCK-MDR1: % Recov A-B” value is 83% and the “General MDCK-MDR1: % Recov B-A” value worked out at 91%. Moreover, in data set [4], the Papp A→B at 120 min, 5 μM was 2.34 ×10⁻⁶ cm/s; the Papp B→A at 120 min, 5 μM worked out at 48.2 ×10⁻⁶ cm/s; the efflux ratio at 120 min, 5 μM amounted to 21.

Turning to `CN1[C@@H]2CC[C@H]1C[C@H](Oc1ccc(-c3ccc(-c4cn[nH]c4)cc3O)nn1)C2` [compound 306], the EC50 in data set [1] is 101 to 500 nM. Besides, the EC50 in data set [2] lay within 501 to 10000 nM. Moreover, in data set [3] (setting [7]), the “General MDCK-MDR1: % Recov A-B” value was determined as 95% and the “General MDCK-MDR1: % Recov B-A” value came out at 102%. In addition, in data set [4], the Papp A→B at 120 min, 5 μM is 1.19 ×10⁻⁶ cm/s; the Papp B→A at 120 min, 5 μM worked out at 55.4 ×10⁻⁶ cm/s; the efflux ratio at 120 min, 5 μM was determined as 47.

By IC50 is commonly meant the concentration that inhibits the measured activity by half. On to `COCC12CCC(CC(N(C)c3ccc(-c4cc(F)c(-n5ccnc5)cc4O)nn3)C1)N2` (single isomer, unassigned; ent1) [315-Ent1], for which the EC50 in data set [5] (read-out: HTT Potency - Splicing: E49-50 EC50 (average)), in data set [5] (read-out: HTT Potency - Splicing: E49b EC50 (average)), in data set [1], in data set [6] (read-out: SMN2 Potency - Splicing: Splicing FL EC50 (average)) and in data set [2] was 0.01 to 15 nM throughout. Also, the IC50 in data set [6] (read-out: SMN2 Potency - Splicing: Splicing D7 IC50 (average)) lay in the range of 0.01 to 15 nM. Besides, the “General MDCK-MDR1: % Recov A-B” value in data set [3] (A-B direction) is 109%. In data set [3] (B-A direction), the “General MDCK-MDR1: % Recov B-A” value was found to be 108%. Besides, the “General MDCK-MDR1: Efflux” value in data set [3] (efflux ratio) turned out to be 103.
